Molecular target: T1, IRAK4 (Homo sapiens, UniProt Q9NWZ3)
T1 construct: endogenous in cells; host or cells: OCI-LY10
T1 sequence (Q9NWZ3 1-460): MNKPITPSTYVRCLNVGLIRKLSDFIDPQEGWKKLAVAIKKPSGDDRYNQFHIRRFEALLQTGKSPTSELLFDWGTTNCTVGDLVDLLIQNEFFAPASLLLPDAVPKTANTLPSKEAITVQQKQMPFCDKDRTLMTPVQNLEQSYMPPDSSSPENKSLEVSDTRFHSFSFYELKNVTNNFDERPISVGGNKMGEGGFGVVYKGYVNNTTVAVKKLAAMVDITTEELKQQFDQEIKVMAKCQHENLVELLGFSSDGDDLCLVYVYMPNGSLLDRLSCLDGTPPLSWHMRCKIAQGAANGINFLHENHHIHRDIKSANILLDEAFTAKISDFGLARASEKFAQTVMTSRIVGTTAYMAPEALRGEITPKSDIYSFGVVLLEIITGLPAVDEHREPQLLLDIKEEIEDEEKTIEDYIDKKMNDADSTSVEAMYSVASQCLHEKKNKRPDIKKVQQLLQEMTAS
Assay: IRAK4 MSD Degradation in OCI-LY10
Type: cell-based
Conditions: OCI-LY10 cells, 4 hrs incubation, read-out: IRAK4 degradation in OCI-LY10 at 4 hrs: DC50
Experimental: Degradation of IRAK4 in OCI-LY10 was quantitatively measured using Meso Scale Discovery technology. […] Compounds were then added to the assay plates with a final top concentration of 1 to 10 μM in a 1:3 dilution series with total of 8 doses. The assay plates were then incubated for 4 to 24 hours at 37° C. under 5% C02. […] To prepare MSD assay plates (Meso Scale Discovery Catalog number L15XA-3), the plates were coated with […] capture antibody (mouse Anti-IRAK4 antibody [2H9], ab119942) in PBS, at 40 μL/well. […] Cell lysates were then added to MSD assay plates and the plates were incubated at room temperature for 1 hour. The plates were then washed 3 times with 150 μL/well TBST buffer and 25 μL/well primary detection antibody (rabbit Anti-IRAK4 antibody [Y279], from Abcam. Catalog number ab32511, 1 μg/mL). The assay plates were then incubated at room temperature for 1 hour, washed 3 times with 150 μL/well TBST buffer and 25 μL/well secondary detection antibody, SULFO-TAG anti-rabbit antibody were added (anti rabbit antibody from Meso Scale Discovery, Catalog number R32AB-1, 1 μg/mL). The assay plates were then incubated at room temperature for 1 hour, washed 3 times with 150 μL/well TBST buffer, and 150 μL/well MSD reading buffer (Meso Scale Discovery catalog number R92TC-2) was added. The plates were then analyzed by a MSD reader (Meso Scale Discovery, Model Quick Plex SQ 120). The data was then analyzed by software Prism 7.0 from GraphPad and the dose-depended IRAK4 degradation were fit using a three-parameter logistic equation to calculate DC50.
The letter codes for IRAK4 […] include: A (<0.05 μM); B (0.05-0.1 μM); C (0.1-0.5 μM); D (0.5-1.0 μM); and E (>1.0 μM).

First: CN(C[C@H]1CC[C@H](n2cc3cc(NC(=O)c4ccccn4)c(C(C)(C)O)cc3n2)CC1)C1CCN(c2ccc3c(c2)n(C2CCC(=O)NC2=O)c(=O)n3C)CC1 (some centres unmarked) [I-86]
Second: Cn1c(=O)n(C2CCC(=O)NC2=O)c2cccc([C@H]3CC[C@H](N(C)C[C@H]4CC[C@H](n5cc6cc(NC(=O)c7cccc(C(F)(F)F)n7)c(C(C)(C)O)cc6n5)CC4)CC3)c21 (single isomer, unassigned) [I-175, N-[2-[4-[[[4-[1-(2,6-dioxo-3-piperidyl)-3-methyl-2-oxo-benzimidazol-4-yl]cyclohexyl]-methyl-amino]methyl]cyclohexyl]-6-(1-hydroxy-1-methyl-ethyl)indazol-5-yl]-6-(trifluoromethyl)pyridine-2-carboxamide]
The DC50 of the first is higher: 500 to 1000 nM for the first, less than 50 nM for the second.

Cn1c(=O)n(C2CCC(=O)NC2=O)c2cccc(N3C[C@H]4C[C@@H]3CN4C[C@H]3CC[C@H](n4cc5cc(NC(=O)c6cccc(C(F)(F)F)n6)c(C(C)(C)O)cc5n4)CC3)c21 (some centres unmarked) [I-282] and Cn1c(=O)n(C2CCC(=O)NC2=O)c2cccc(N3CCN(C[C@H]4CC[C@H](n5cc6cc(NC(=O)c7cccc(C(F)(F)F)n7)c(C(C)(C)O)cc6n5)CC4)CC3)c21 (some centres unmarked) [I-172] cannot be ordered by DC50: less than 50 nM for the first, less than 50 nM for the second.

CN(CCCC#Cc1cccc2c1n(C)c(=O)n2C1CCC(=O)NC1=O)C[C@H]1CC[C@H](n2cc3cc(NC(=O)c4cccc(C(F)(F)F)n4)c(C(C)(C)O)cc3n2)CC1 (some centres unmarked) [I-228, N-(2-((1r,4r)-4-(((5-(1-(2,6-dioxopiperidin-3-yl)-3-methyl-2-oxo-2,3-dihydro-1H-benzo[d]imidazol-4-yl)pent-4-yn-1-yl)(methyl)amino)methyl)cyclohexyl)-6-(2-hydroxypropan-2-yl)-2H-indazol-5-yl)-6-(trifluoromethyl)picolinamide] and CN(CCCC#Cc1ccc2c(c1)n(C)c(=O)n2C1CCC(=O)NC1=O)C[C@H]1CC[C@H](n2cc3cc(NC(=O)c4cccc(C(F)(F)F)n4)c(C(C)(C)O)cc3n2)CC1 (some centres unmarked) [I-67, N-(2-((1r,4r)-4-(((5-(1-(2,6-dioxopiperidin-3-yl)-3-methyl-2-oxo-2,3-dihydro-1H-benzo[d]imidazol-5-yl)pent-4-yn-1-yl)(methyl)amino)methyl)cyclohexyl)-6-(2-hydroxypropan-2-yl)-2H-indazol-5-yl)-6-(trifluoromethyl)picolinamide] cannot be ordered by DC50: less than 50 nM for the first, less than 50 nM for the second.

Cn1c(=O)n(C2CCC(=O)NC2=O)c2cccc(CC3CC4(CCN(C[C@H]5CC[C@H](n6cc7cc(NC(=O)c8cccc(C(F)(F)F)n8)c(C(C)(C)O)cc7n6)CC5)CC4)C3)c21 (some centres unmarked) [I-56] and Cn1c(=O)n(C2CCC(=O)NC2=O)c2cccc(CCC3CC4(CCN(C[C@H]5CC[C@H](n6cc7cc(NC(=O)c8cccc(C(F)(F)F)n8)c(C(C)(C)O)cc7n6)CC5)CC4)C3)c21 (some centres unmarked) [I-53] cannot be ordered by DC50: less than 50 nM for the first, less than 50 nM for the second.

CN(CCCO[C@H]1C[C@H](Cc2cccc3c2n(C)c(=O)n3C2CCC(=O)NC2=O)C1)C[C@H]1CC[C@H](n2cc3cc(NC(=O)c4cccc(C(F)(F)F)n4)c(C(C)(C)O)cc3n2)CC1 (some centres unmarked) [I-85] and Cn1c(=O)n(C2CCC(=O)NC2=O)c2ccc(C#CCCCNC[C@H]3CC[C@H](n4cc5cc(NC(=O)c6cccc(C(F)(F)F)n6)c(C(C)(C)O)cc5n4)CC3)cc21 (some centres unmarked) [I-61, N-[2-[4-[[5-[1-(2,6-dioxo-3-piperidyl)-3-methyl-2-oxo-benzimidazol-5-yl]pent-4-ynylamino]methyl]cyclohexyl]-6-(1-hydroxy-1-methyl-ethyl)indazol-5-yl]-6-(trifluoromethyl)pyridine-2-carboxamide] cannot be ordered by DC50: less than 50 nM for the first, less than 50 nM for the second.

COc1cc2nn([C@H]3CC[C@H](C(=O)N4CCC(c5cccc6c5n(C)c(=O)n6C5CCC(=O)NC5=O)CC4)CC3)cc2cc1NC(=O)c1cccc(C(F)(F)F)n1 (some centres unmarked) [I-295, N-[2-[4-[4-[1-(2,6-dioxo-3-piperidyl)-3-methyl-2-oxo-benzimidazol-4-yl]piperidine-1-carbonyl]cyclohexyl]-6-methoxy-indazol-5-yl]-6-(trifluoromethyl)pyridine-2-carboxamide] and COc1cc2nn([C@H]3CC[C@H](C(=O)N(C)C4CCN(Cc5cccc6c5n(C)c(=O)n6C5CCC(=O)NC5=O)CC4)CC3)cc2cc1NC(=O)c1cccc(C(F)(F)F)n1 (some centres unmarked) [I-293] fall in the same range of DC50: 50 to 100 nM for the first, 50 to 100 nM for the second.

First: COc1cc2nn([C@H]3CC[C@H](CN4CCN(c5cccc6c5n(C)c(=O)n6C5CCC(=O)NC5=O)CC4)CC3)cc2cc1NC(=O)c1cccc(C(F)(F)F)n1 (some centres unmarked) [I-171]
Second: COc1cc2nn([C@H]3CC[C@H](CN(C)C4CCN(c5cccc6c5n(C)c(=O)n6C5CCC(=O)N(C)C5=O)CC4)CC3)cc2cc1NC(=O)c1cccc(C(F)(F)F)n1 (some centres unmarked) [I-283]
The DC50 of the first is lower: less than 50 nM for the first, 500 to 1000 nM for the second.

Compared with Cn1c(=O)n(C2CCC(=O)NC2=O)c2cccc(CN3CC4(CCN(C(=O)[C@H]5CC[C@H](n6cc7cc(NC(=O)c8cccc(C(F)(F)F)n8)c(C(C)(C)O)cc7n6)CC5)CC4)C3)c21 (some centres unmarked) [I-44], Cn1c(=O)n(C2CCC(=O)NC2=O)c2cccc(CN3CC4(CN(Cc5ccc(-n6cc7cc(NC(=O)c8cccc(C(F)(F)F)n8)c(C(C)(C)O)cc7n6)cc5)C4)C3)c21 (centres unmarked) [I-49] is higher in DC50: less than 50 nM for the first, 50 to 100 nM for the second.

Cn1c(=O)n(C2CCC(=O)NC2=O)c2cccc(CCCC3CCN(C[C@H]4CC[C@H](n5cc6cc(NC(=O)c7cccc(C(F)(F)F)n7)c(N7C[C@@H]8C[C@H]7CO8)cc6n5)CC4)CC3)c21 (some centres unmarked) [I-154] was tested, and the DC50 was 50 to 100 nM.

Same assay, conditions: OCI-LY10 cells, 24 hrs incubation, read-out: IRAK4 degradation in OCI-LY10 at 24 hrs: DC50

COc1cc2nn([C@H]3CC[C@H](CN(C)C4CCC5(CC4)CC(Nc4cccc6c4C(=O)N(C4CCC(=O)NC4=O)C6=O)C5)CC3)cc2cc1NC(=O)c1cccc(C(F)(F)F)n1 (some centres unmarked) [I-223] and CC(C)Oc1cc2nn([C@H]3CC[C@H](CN4CCC5(CC4)CC(Nc4cccc6c4C(=O)N(C4CCC(=O)NC4=O)C6=O)C5)CC3)cc2cc1NC(=O)c1cccc(C(F)(F)F)n1 (some centres unmarked) [I-202] fall in the same range of DC50: 50 to 100 nM for the first, 50 to 100 nM for the second.

COc1cc2nn([C@H]3CC[C@H](CN4CCC5(CC4)CC(CNc4cccc6c4C(=O)N(C4CCC(=O)NC4=O)C6=O)C5)CC3)cc2cc1NC(=O)c1coc(-c2ccnc(C)c2)n1 (some centres unmarked) [I-316] and COc1cc2nn([C@H]3CC[C@H](CN4CCC5(CC4)CC(CCNc4cccc6c4C(=O)N(C4CCC(=O)NC4=O)C6=O)C5)CC3)cc2cc1NC(=O)c1ccccn1 (some centres unmarked) [I-125] fall in the same range of DC50: 50 to 100 nM for the first, 50 to 100 nM for the second.

CN(C[C@H]1CC[C@H](n2cc3cc(NC(=O)c4cccc(C(C)(C)F)n4)c(C(C)(C)O)cc3n2)CC1)[C@H]1CC[C@H](Nc2cccc3c2C(=O)N(C2CCC(=O)NC2=O)C3=O)CC1 (some centres unmarked) [I-306] and Cc1cccc(C(=O)Nc2cc3cn([C@H]4CC[C@H](CN(C)[C@H]5CC[C@H](Nc6cccc7c6C(=O)N(C6CCC(=O)NC6=O)C7=O)CC5)CC4)nc3cc2C(C)(C)O)n1 (some centres unmarked) [I-47] cannot be ordered by DC50: less than 50 nM for the first, less than 50 nM for the second.

COc1cc2nn([C@H]3CC[C@H](CN4CCC5(CCC(Nc6cccc7c6C(=O)N(C6CCC(=O)NC6=O)C7=O)CC5)CC4)CC3)cc2cc1NC(=O)c1cccc(C(C)(C)F)n1 (some centres unmarked) [I-88] and CC(C)(O)COc1cc2nn([C@H]3CC[C@H](CN4CCC5(CC4)CC(CNc4cccc6c4C(=O)N(C4CCC(=O)NC4=O)C6=O)C5)CC3)cc2cc1NC(=O)c1cccc(C(F)(F)F)n1 (some centres unmarked) [I-138] fall in the same range of DC50: 50 to 100 nM for the first, 50 to 100 nM for the second.

First: O=C1CCC(N2C(=O)c3cccc(NCCC4CC5(CCN(C[C@H]6CC[C@H](n7cc8cc(NC(=O)c9cccc(C(F)(F)F)n9)c(OC(F)(F)F)cc8n7)CC6)CC5)C4)c3C2=O)C(=O)N1 (some centres unmarked) [I-141]
Second: COc1cc2nn([C@H]3CC[C@H](CN4CC5(CC(CCNc6cccc7c6C(=O)N([C@@H]6CCC(=O)NC6=O)C7=O)C5)C4)CC3)cc2cc1NC(=O)c1cccc(C(C)(F)F)n1 [I-254, 6-(1,1-Difluoroethyl)-N-[2-[4-[[6-[2-[[2-[(3R)-2,6-dioxo-3-piperidyl]-1,3-dioxo-isoindolin-4-yl]amino]ethyl]-2-azaspiro[3.3]heptan-2-yl]methyl]cyclohexyl]-6-methoxy-indazol-5-yl]pyridine-2-carboxamide]
The DC50 of the first is higher: 50 to 100 nM for the first, less than 50 nM for the second.

First: CN(CCCn1cc2cc(NC(=O)c3cccc(C(F)(F)F)n3)c(C(C)(C)O)cc2n1)C1CCC2(CC1)CC(Nc1cccc3c1C(=O)N(C1CCC(=O)NC1=O)C3=O)C2 (centres unmarked) [I-79]
Second: CN(CCCO[C@H]1C[C@H](Nc2cccc3c2C(=O)N(C2CCC(=O)NC2=O)C3=O)C1)C[C@H]1CC[C@H](n2cc3cc(NC(=O)c4coc(-c5ccnc(NCC6CC6)c5)n4)c(C(C)(C)O)cc3n2)CC1 (some centres unmarked) [I-221]
The DC50 of the first is higher: 100 to 500 nM for the first, less than 50 nM for the second.
